The values that follow come from patent publication US5449783A, “Diphenylthiazole derivative” (Hisamitsu Pharmaceutical Co., Inc., priority 1993, dated 1995).

For test [1] the following is noted: as stated by prior reference A; cited from earlier work.
A further test deals with platelet aggregation. Conditions: as stated by prior reference A; cited from earlier work.
The conditions of test [2]: as stated by prior reference A; cited from earlier work. The source holds these as a separate data set.
Test [3] has as its system carrageenin-induced paw edema. As to the kind of experiment: Rat carrageenin-induced paw edema experiment C (injected together with carrageenin into the paw). It counts as in vivo, Male Wistar rats. Conditions: 3 hours after induction. On the technique in general: In the carrageenan paw model, swelling and tenderness develop within hours.
Method: Rat (carrageenin-induced paw edema experiment C)
Male Wistar rats weighing 160 to 170 g were divided into groups each comprising 7 animals.
0.1 ml of 1% carrageenin (PICNIN A, mfd. by Zushi Kagaku K.K.) containing a test compound was subcutaneously injected into the right hind paw of each rat and the edema thus induced was measured with the lapse of time by using a device for measuring foot edema.
Test [4] has as its system carrageenin-induced paw edema. As to the kind of experiment: Rat carrageenin-induced paw edema experiment B (intravenous). It counts as in vivo, Male Wistar rats. Conditions: 1 mg/kg, immediately before carrageenin, 3 hours after induction.
Method: Rat (carrageenin-induced paw edema experiment B)
0.1 ml of 1% carrageenin (PICNIN A, mfd. by Zushi Kagaku K.K.) was subcutaneously injected into the right hind paw of each rat and the edema thus induced was measured with the lapse of time by using a device for measuring foot edema. A test compound was suspended in a 60% N,N-dimethylformamide solution in physiological saline and intravenously injected to the rat immediately before the injection of carrageenin.
Another test concerns biosynthesis of 5-HETE. As to the kind of experiment: Effect of inhibiting biosynthesis of 5-HETE in neutrophiles. The format is cell-based, Hartley guinea pigs. Conditions: 10^-6; A 23187, 14C-arachidonic acid.
Another test addresses T1, prostaglandin synthetase (Ovis aries, UniProt P05979).
T1 construct: originating in sheep seminal vesicle; from tissue; host or cells: sheep seminal vesicle
T1 sequence (P05979 25-600): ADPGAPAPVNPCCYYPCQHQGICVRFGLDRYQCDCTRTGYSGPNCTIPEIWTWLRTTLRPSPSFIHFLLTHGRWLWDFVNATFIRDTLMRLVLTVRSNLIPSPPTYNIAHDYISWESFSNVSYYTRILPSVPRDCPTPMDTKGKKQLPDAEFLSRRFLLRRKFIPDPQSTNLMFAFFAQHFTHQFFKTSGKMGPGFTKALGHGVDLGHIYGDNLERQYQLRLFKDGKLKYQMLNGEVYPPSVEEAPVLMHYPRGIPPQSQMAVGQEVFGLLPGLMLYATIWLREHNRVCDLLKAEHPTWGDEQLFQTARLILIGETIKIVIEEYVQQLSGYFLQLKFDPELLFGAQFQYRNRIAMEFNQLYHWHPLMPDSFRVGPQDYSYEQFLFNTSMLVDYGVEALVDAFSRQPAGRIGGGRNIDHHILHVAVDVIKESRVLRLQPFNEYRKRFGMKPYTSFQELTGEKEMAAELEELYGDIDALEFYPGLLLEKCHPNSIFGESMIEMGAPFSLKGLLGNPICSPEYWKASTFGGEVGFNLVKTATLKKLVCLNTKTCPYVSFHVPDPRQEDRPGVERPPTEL
The experiment in a line: Effect of inhibiting biosynthesis of prostaglandin E2. The format is biochemical, sheep. The note with it: 10^-7; 10 minutes incubation.

The subject of test [5] is acetic acid-induced writhing. The experiment in a line: Mouse acetic acid-induced writhing experiment. It counts as in vivo, Male ddy mice. Conditions: oral, 20 mg/kg, 30 minutes before 0.6% acetic acid; writhing counted for 10 minutes. The method, then:
(Mouse acetic acid-induced writhing experiment)
Male ddy mice weighing about 23 g were divided into groups each comprising 7 to 9 animals.
30 minutes after a test compound was orally administered, a 0.6% acetic acid solution in physiological saline was intraperitoneally administered in a dose of 0.1 ml per 10 g of the body weight. From 5 minutes after the intraperitoneal administration, the frequency of writhing was counted for 10 minutes to determine the inhibition ratio by comparing with the frequency of writhing in the control group.
On the technique in general: Writhing tests count abdominal constrictions after an irritant is injected.

For test [6], the system named is adjuvant arthritis (edema of the hind paw). As to the kind of experiment: Rat adjuvant arthritis experiment. The format is in vivo, male Wistar rat. The note with it: oral, 10 mg/kg once a day for 7 days. How it is done:
(Rat adjuvant arthritis experiment)
0.1 ml of 6 mg/ml Mycobacterium butyricum suspension in liquid paraffin was intracutaneously injected into the tail root of each male Wistar rat weighing about 200 g. 20 days thereafter, rats clearly suffering from arthritis in the hind paw were selected and divided into groups each comprising 7 animals.
A test compound was orally administered in a dose as specified below once a day for 7 days. Then the effect of the test compound on the adjuvant arthritis was examined by using an inhibition ratio on the edema of the hind paw as an indicator. The inhibition ratio was calculated according to the following equation.

The subject of test [7] is carrageenin-induced paw edema. As to the kind of experiment: Rat carrageenin-induced paw edema experiment A (oral). It counts as in vivo, Male Wistar rats. The note with it: 10 mg/kg, 1 hour before carrageenin, 3 hours after induction. How it is done: Rat (carrageenin-induced paw edema experiment A)
Male Wistar rats weighing 140 to 160 g were divided into groups each comprising 8 animals.
0.1 ml of 1% carrageenin (PICNIN A, mfd. by Zushi Kagaku K.K.) was subcutaneously injected into the right hind paw of each rat and the edema thus induced was measured with the lapse of time by using a device for measuring foot edema. A test compound was suspended in a 0.5% CMC solution and orally administered to the rat 1 hour before the injection of carrageenin. The results expressed in the inhibition ratio (average) of each test group to the control group, to which no compound had been orally administered, 3 hours after the induction of the reaction are given in Table 2.

Method for biosynthesis of 5-HETE: (Effect of inhibiting biosynthesis of 5-HETE)
Hartley guinea pigs weighing 300 to 500 g were used.
0.2% oyster glycogen was intraperitoneally administered to each guinea pig and, after 16 hours, neutrophiles of the animal were harvested. […] After ceasing the reaction with 1N hydrochloric acid under ice-cooling, the reaction mixture was extracted with ethyl acetate. Then the extract was solidified by drying with nitrogen gas, dissolved in ethanol and developed on a TLC with a developer. Then the aimed part was scraped up and the radioactivity was measured with a liquid scintillation counter.
Method for prostaglandin synthetase: (Effect of inhibiting biosynthesis of prostaglandin E2)
To a tris buffer solution containing 50 mM of glutathione and 50 mM of epinephrine were added prostaglandin synthetase (originating in sheep seminal vesicle) and a test drug dissolved in DMSO and incubated for 10 minutes. Then the reaction was ceased with 1 N hydrochloric acid under ice-cooling and the reaction mixture was extracted with ethyl ether. Then the extract was solidified by drying with nitrogen gas, dissolved in ethanol and developed on a TLC with a developer. Then the aimed part was scraped up and the radioactivity was measured with a liquid scintillation counter.

`CNc1nc(-c2ccccc2)c(-c2ccccc2)s1` [2-methylamino-4,5-diphenyl-thiazole]: the “antiinflammatory and analgesic effects (in words)” value in test [1] is reported as “weak or scarcely any”. The “platelet aggregation inhibiting effect (in words)” value with platelet aggregation is “platelet aggregation inhibiting effect”. The “hypocholesterolemic effect (in words)” value in test [2] is “hypocholesterolemic effect”.
On to `COc1ccc2c(c1)c(CC(=O)O)c(C)n2C(=O)c1ccc(Cl)cc1` [indomethacin, reference compound], for which the Inhibition ratio in test [3] (0.03 mg/kg) is listed as 44.7%; in [4], 47.4%.
Regarding `CC(=O)N(C)c1nc(-c2ccccc2)c(-c2ccccc2)s1` [2-(N-methyl-N-acetyl)amino-4,5-diphenylthiazole], the “antiinflammatory and analgesic effects (in words)” value in test [1] is “weak or scarcely any”. Also, the “platelet aggregation inhibiting effect (in words)” value in the test on platelet aggregation was “platelet aggregation inhibiting effect”. In addition, the “hypocholesterolemic effect (in words)” value in test [2] was “hypocholesterolemic effect”.
Turning to `COc1ccc(-c2nc(NS(=O)(=O)C(F)(F)F)sc2-c2ccccc2)cc1` [Ex. 10], the Inhibition ratio with biosynthesis of 5-HETE was 45.1%; on prostaglandin synthetase, 57.2%; in test [3] (0.003 mg/kg) it was 50.7%; in test [5], 46.1%; in test [6], 45.6%; in test [4] it was 52.8%. Also, the Inhibition ratio in test [7] amounted to 46.8%.
On to `O=[N+]([O-])c1ccc(-c2sc(NS(=O)(=O)C(F)(F)F)nc2-c2ccccc2)cc1` [Ex. 17], for which the Inhibition ratio in the test on biosynthesis of 5-HETE is 47.3%; on prostaglandin synthetase it was 48.1%; in [3] (0.003 mg/kg), 37.1%; in test [5], 36.3%; in test [6], 35.3%; in test [4], 36.6%. Also, the Inhibition ratio in test [7] is 23.9%.
On to `O=S(=O)(Nc1nc(-c2ccccc2)c(-c2ccc(F)cc2)s1)C(F)(F)F` [Ex. 37], for which the Inhibition ratio with biosynthesis of 5-HETE amounted to 48.7%; at prostaglandin synthetase, 43.9%; in [3] (0.003 mg/kg), 49.8%; in [5], 18.1%; in test [6], 44.9%; in test [4] it was 46.4%. The Inhibition ratio in [7] was 56.2%.
As for `CC(Cc1ccc(O)c(O)c1)C(C)Cc1ccc(O)c(O)c1` (centres unmarked) [NDGA, nordihydroguairetic acid, reference compound], the Inhibition ratio in the test with biosynthesis of 5-HETE came to 43.0%.
In the case of `O=S(=O)(Nc1nc(-c2ccccc2)c(-c2ccccc2)s1)C(F)(F)F` [Ex. 1, 2-trifluoromethanesulfonylamino-4,5-diphenylthlazole], the Inhibition ratio in the test with biosynthesis of 5-HETE worked out at 40.5%; at prostaglandin synthetase it was 45.5%; in test [3] (0.003 mg/kg), 44.2%; in test [5], 24.6%; in test [6] it was 36.6%; in test [4], 41.3%. Moreover, the Inhibition ratio in test [7] is reported as 44.9%.
On to `c1ccc(-c2nc(N3CCOCC3)sc2-c2ccccc2)cc1` [2-morpholino-4,5-diphenylthiazole], for which, in test [1], the “antiinflammatory and analgesic effects (in words)” value is listed as “weak or scarcely any”. In the test on platelet aggregation, the “platelet aggregation inhibiting effect (in words)” value is on record as “platelet aggregation inhibiting effect”. In addition, in [2], the “hypocholesterolemic effect (in words)” value was “hypocholesterolemic effect”.
As for `COc1ccc(-c2sc(NS(=O)(=O)C(F)(F)F)nc2-c2ccccc2)cc1` [Ex. 32], the Inhibition ratio with biosynthesis of 5-HETE was 44.8%; on prostaglandin synthetase, 52.2%; in test [3] (0.003 mg/kg) it was 50.4%; in test [5], 28.6%; in test [6], 34.6%; in [4], 48.1%. Moreover, in test [7], the Inhibition ratio stood at 52.3%.
